Patent US20250320213A1, “Nitrogen-Containing Heterocyclic Compounds” (Pfizer Inc., priority 2024, published 2025)

How the values were obtained:
[1] = system: CCL17 secretion in peripheral human whole blood; experiment: Human Whole Blood (HWB) CCL17 TR-FRET Assay (IL-13 stimulated CCL17 secretion); type: cell-based; details: Homo sapiens, 48 h, human whole blood, IL-13 10 ng/mL
Outline: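 Heparinized human whole blood was preincubated with compound (11-point, 3-fold series) for 2 h at 37°C, then stimulated with IL-13 (10 ng/mL final) for 48 h. Serum CCL17 was measured by TR-FRET sandwich immunoassay (665/615 nm ratio) after 16 h at room temperature, giving IC50.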

[2] = target: T1, STAT6 (Homo sapiens, UniProt P42226); experiment: STAT6 Reporter Luciferase Assay (IL-13 stimulated HaCaT keratinocyte NanoLuc reporter cells); type: cell-based; details: IL-13 stimulated HaCaT STAT6 NanoLuc reporter cells; read-out: Reporter EC50
T1 construct: stably transfected HaCaT keratinocyte cell line, which expresses NanoLuc luciferase reporter gene under the transcriptional control of the STAT6 responsive promoter; endogenous in cells; host or cells: HaCaT keratinocyte reporter cell line (stably transfected with a NanoLuc reporter)
T1 sequence (P42226 1-847): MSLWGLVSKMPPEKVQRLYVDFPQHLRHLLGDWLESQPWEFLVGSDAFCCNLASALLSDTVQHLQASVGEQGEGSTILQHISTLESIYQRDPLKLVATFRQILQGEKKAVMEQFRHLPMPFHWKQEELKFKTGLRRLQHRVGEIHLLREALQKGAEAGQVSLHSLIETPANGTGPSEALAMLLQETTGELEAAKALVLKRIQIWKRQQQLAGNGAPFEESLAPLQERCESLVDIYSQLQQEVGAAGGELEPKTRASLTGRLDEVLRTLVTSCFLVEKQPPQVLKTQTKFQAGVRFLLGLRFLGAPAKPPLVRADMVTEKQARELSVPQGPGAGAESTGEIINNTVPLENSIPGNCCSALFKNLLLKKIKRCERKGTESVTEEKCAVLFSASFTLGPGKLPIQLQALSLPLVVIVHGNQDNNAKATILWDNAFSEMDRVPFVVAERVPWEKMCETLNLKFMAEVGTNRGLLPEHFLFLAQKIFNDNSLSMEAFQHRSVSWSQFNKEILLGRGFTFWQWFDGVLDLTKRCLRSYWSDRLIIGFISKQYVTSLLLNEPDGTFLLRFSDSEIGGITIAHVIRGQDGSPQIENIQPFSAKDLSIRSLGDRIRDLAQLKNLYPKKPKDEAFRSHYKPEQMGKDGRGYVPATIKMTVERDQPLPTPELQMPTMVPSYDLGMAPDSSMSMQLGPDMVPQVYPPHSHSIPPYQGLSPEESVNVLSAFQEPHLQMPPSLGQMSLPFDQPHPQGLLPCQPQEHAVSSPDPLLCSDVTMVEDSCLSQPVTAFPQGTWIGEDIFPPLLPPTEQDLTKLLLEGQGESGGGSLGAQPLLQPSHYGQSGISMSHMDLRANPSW
Outline: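 Stably transfected HaCaT cells carrying NanoLuc under the STAT6-responsive IL-13Ra2 promoter were pre-treated with compound (11-point, 4-fold series, duplicate) for 2 h at 37 °C, then stimulated with 0.12 nM IL-13 for 4 h. Nano-Glo luminescence was read after 15 min.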

IC50 [1] [nM] | EC50 [2] [nM] | Structure (SMILES)
102 | 12 | CC(C)n1nc(C(=O)NCc2ccc(NC(=O)C3CCN(C)CC3)c(F)c2)c2c1[C@@H](C)CN(c1ccc(C(=O)N(C)C)cc1)C2 [Example 721, (S)-5-(4-(dimethylcarbamoyl)phenyl)-N-(3-fluoro-4-(1-methylpiperidine-4-carboxamido)benzyl)-1-isopropyl-7-methyl-4,5,6,7-tetrahydro-1H-pyrazolo[4,3-c]pyridine-3-carboxamide]
40 | 8 | CN[C@@H]1CCN(C(=O)Nc2ccc(CNC(=O)c3nn(C(C)C)c4c3CN(c3ccc(C(=O)N(C)C)cc3)C[C@@H]4C)cc2)C1 [Example 722, (S)-5-(4-(dimethylcarbamoyl)phenyl)-1-isopropyl-7-methyl-N-(4-((R)-3-(methylamino)pyrrolidine-1-carboxamido)benzyl)-4,5,6,7-tetrahydro-1H-pyrazolo[4,3-c]pyridine-3-carboxamide]
665 | 128 | Cc1coc(-c2ccc(CNC(=O)c3nn(C(C)C)c4c3CN(c3ccc(C(=O)N(C)C)cc3)C[C@@H]4C)cc2)n1 [Example 723, (S)-5-(4-(dimethylcarbamoyl)phenyl)-1-isopropyl-7-methyl-N-(4-(4-methyloxazol-2-yl)benzyl)-4,5,6,7-tetrahydro-1H-pyrazolo[4,3-c]pyridine-3-carboxamide]
4460 | 177 | CC(C)n1nc(C(=O)NCc2ccc(-c3ccn(C)n3)cc2)c2c1[C@@H](C)CN(c1ccc(C(=O)N(C)C)cc1)C2 [Example 725, (S)-5-(4-(dimethylcarbamoyl)phenyl)-1-isopropyl-7-methyl-N-(4-(1-methyl-1H-pyrazol-3-yl)benzyl)-4,5,6,7-tetrahydro-1H-pyrazolo[4,3-c]pyridine-3-carboxamide]

The remaining lines, values behind:

Structure (SMILES) | IC50 [1] [nM] | EC50 [2] [nM]
Cc1cncc(-c2ccc(CNC(=O)c3nn(C(C)C)c4c3CN(c3ccc(C(=O)N(C)C)cc3)C[C@H]4C)cc2)n1 [Example 724, (R)-5-(4-(dimethylcarbamoyl)phenyl)-1-isopropyl-7-methyl-N-(4-(6-methylpyrazin-2-yl)benzyl)-4,5,6,7-tetrahydro-1H-pyrazolo[4,3-c]pyridine-3-carboxamide] | 5060 | 129
Cc1cccc(-c2ccc(CNC(=O)c3nn(C(C)C)c4c3CN(c3ccc(C(=O)N(C)C)cc3)C[C@@H]4C)cc2)n1 [Example 726, (S)-5-(4-(dimethylcarbamoyl)phenyl)-1-isopropyl-7-methyl-N-(4-(6-methylpyridin-2-yl)benzyl)-4,5,6,7-tetrahydro-1H-pyrazolo[4,3-c]pyridine-3-carboxamide] | 5680 | 123
Cc1ccc(-c2ccc(CNC(=O)c3nn(C(C)C)c4c3CN(c3ccc(C(=O)N(C)C)cc3)C[C@@H]4C)cc2)nn1 [Example 727, (S)-5-(4-(dimethylcarbamoyl)phenyl)-1-isopropyl-7-methyl-N-(4-(6-methylpyridazin-3-yl)benzyl)-4,5,6,7-tetrahydro-1H-pyrazolo[4,3-c]pyridine-3-carboxamide] | 383 | 11
Cc1nccc(-c2ccc(CNC(=O)c3nn(C(C)C)c4c3CN(c3ccc(C(=O)N(C)C)cc3)C[C@@H]4C)cc2)n1 [Example 728, (S)-5-(4-(dimethylcarbamoyl)phenyl)-1-isopropyl-7-methyl-N-(4-(2-methylpyrimidin-4-yl)benzyl)-4,5,6,7-tetrahydro-1H-pyrazolo[4,3-c]pyridine-3-carboxamide] | 4210 | 231
Cc1csc(-c2ccc(CNC(=O)c3nn(C(C)C)c4c3CN(c3ccc(C(=O)N(C)C)cc3)C[C@@H]4C)cc2)n1 [Example 729, (S)-5-(4-(dimethylcarbamoyl)phenyl)-1-isopropyl-7-methyl-N-(4-(4-methylthiazol-2-yl)benzyl)-4,5,6,7-tetrahydro-1H-pyrazolo[4,3-c]pyridine-3-carboxamide] | 4330 | 683
